Measured values reported in US20240269204A1, “COMPOSITION FOR ALLEVIATING SKIN DAMAGE CAUSED BY HYPOXIA CONTAINING SACCHAROMYCES CEREVISIAE STRAIN” (AMOREPACIFIC CORPORATION, priority 2023, published 2024).

How the values were obtained:
MMP1 = MMP1 gene expression by qPCR in CoCl2-induced hypoxic keratinocytes; format: cell-based; settings: keratinocytes (HEKn) treated with 200 μM CoCl2, 2.5 µM EGCG, cultured for 18 hours
Description: (§1) First, keratinocytes (HEKn) (onza, Switzerland) were treated with 200 μM CoCl2 to induce a hypoxic environment. After that, the expression level of hypoxia-inducible factor 1-alpha (HIF1A) that was known to be expressed under hypoxia was compared with that before the treatment with CoCl2 (CTL in FIG. 1) to confirm that the expression level of HIF1A increased compared with that before the treatment with CoCl2 (FIG. 1), and thus skin (keratinocytes) damaged by hypoxia (hereinafter referred to as hypoxic keratinocytes) was prepared. Thereafter, in order to verify the effect of the strain isolated in Example 1 on the alleviation of skin damage due to hypoxia, the hypoxic keratinocytes were treated with the extract prepared in Example 2 at various concentrations and then cultured for 18 hours. […] Specifically, 10 μL of universal master mix (Taqman 2X Universal PCR mix, Applied Biosystems, Cat. No. 4304437) and 1 μL of TaqMan probe were added, 5 μL of CDNA was added to obtain a total volume of 20 μL, and PCR was performed using the Applied biosystem 7500 fast real time PCR system and the provided standard protocol. The expression of MMP1, an aging-related gene, and COX2, an inflammation-related gene, was examined through qPCR, and the results are illustrated in FIGS. 2 and 3. At this time, EGCG was used as Comparative Example. […]

COX2 = COX2 gene expression by qPCR in CoCl2-induced hypoxic keratinocytes; format: cell-based; settings: keratinocytes (HEKn) treated with 200 μM CoCl2, EGCG at 2.5 ppm, cultured for 18 hours
Description: as §1

## O=C(O[C@@H]1Cc2c(O)cc(O)cc2O[C@@H]1c1cc(O)c(O)c(O)c1)c1cc(O)c(O)c(O)c1 [EGCG]
MMP1
  inhibition of MMP1 overexpressed by hypoxia (expression level of MMP1, FIG. 2): cannot inhibit MMP1 overexpressed by hypoxia
COX2
  inhibition of COX2 overexpressed by hypoxia (expression level of COX2, FIG. 3): cannot inhibit expression of COX2 overexpressed by hypoxia
